# Where two headings read alike, the source gives them in different places.
# Assays:
# [1] = target: T1, PfCRT^Ecu1110 (Plasmodium falciparum, UniProt Q9N623, A220S/I356L/K76T/N326D); assay: cell-based; format: cell-based; details: for Uptake of [3H]CQ (% PfCRTEcu1110 control), trans-stimulation / PfCRT-mediated [3H]CQ transport, trans-stimulation (% PfCRTEcu1110 control): PfCRTEcu1110 oocytes; for Uptake of [3H]CQ (% PfCRTEcu1110 control), trans-stimulation: total [3H]CQ transport, normalised to the oocyte type control; for PfCRT-mediated [3H]CQ transport, trans-stimulation (% PfCRTEcu1110 control): normalised to oocyte type control; for [3H]CQ transport (% PfCRTDd2 control), trans-stimulation, PfCRTEcu1110: PfCRT-mediated component (background subtracted), sheet title says normalised to PfCRTDd2 control, mean ± SEM, SEM
# In short: (§1)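 Oocytes (ten per treatment, ≥4 independent frogs/days) were preloaded by injecting VF-6 in 25 nL ND96 at pH 5.0, 5.5, 6.0 or 7.0, or Na^+-free choline buffer, then uptake run 1.5 h, 27.5 °C, ND96 pH 5.5 by default. Internal concentrations assumed ~400 nL oocyte volume.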
# [2] = target: T2, PfCRT^Dd2 (Plasmodium falciparum, UniProt Q9N623, A220S/I356T/K76T/M74I/N326S/N75E/Q271E/R371I); assay: cell-based; format: cell-based; details: for Uptake of [3H]CQ (% PfCRTDd2 control), trans-stimulation / PfCRT-mediated [3H]CQ transport, trans-stimulation (% PfCRTDd2 control): PfCRTDd2 oocytes; for Uptake of [3H]CQ (% PfCRTDd2 control), trans-stimulation: total [3H]CQ transport, normalised to the oocyte type control; for PfCRT-mediated [3H]CQ transport, trans-stimulation (% PfCRTDd2 control): normalised to oocyte type control; for [3H]CQ transport (% PfCRTDd2 control), trans-stimulation, PfCRTDd2: PfCRT-mediated component (background subtracted), mean ± SEM, SEM
# In short: as §1
# [3] = target: T3, PfNT1 (Plasmodium falciparum, UniProt Q8IDM6); assay: cell-based; format: cell-based; details: PfNT1 oocytes, total [3H]CQ transport, normalised to the oocyte type control
# T3 construct: expressed in transfected cells; host or cells: Xenopus laevis oocytes (stage V-VI), cRNA-injected
# In short: as §1
# [4] = target: T4, PfCRT^3D7 (Plasmodium falciparum, UniProt Q8IBZ9); assay: cell-based; format: cell-based; details: PfCRT3D7 oocytes; for Uptake of [3H]CQ (% PfCRT3D7 control), trans-stimulation: total [3H]CQ transport, normalised to the oocyte type control; for PfCRT-mediated [3H]CQ transport, trans-stimulation (% PfCRT3D7 control): normalised to oocyte type control
# In short: as §1
# [5] = target: T4, PfCRT^3D7; assay: cell-based; format: cell-based; details: PfCRT3D7 oocytes, total [3H]CQ transport, normalised to the oocyte type control
# Excerpt: (§2) The orientation of PfCRT in the parasite’s DV membrane, and also in the oocyte plasma membrane, is such that its N- and C-termini extend into the cytosol. The oocytes were suspended in a reaction buffer adjusted to pH 5.5 to mimic the pH of the DV lumen[1],[2]. In this scenario, the transport of a substrate via PfCRT from the acidic extracellular solution into the oocyte cytosol[15] is analogous to the parasite’s PfCRT-mediated efflux of a substrate from the acidic DV and into the cytosol. Unless specified otherwise, this is the direction in which substrate transport was measured in the oocyte assays.
# (§3) Unless specified otherwise, the transport assays were conducted over 1.5 h at 27.5 °C and the reaction buffer was ND96 (96 mM NaCl, 2 mM KCl, 1 mM MgCl2, 1.8 mM CaCl2, 10 mM MES and 10 mM Tris-base) at pH 5.5.
# (§4) Ten oocytes were washed twice with the relevant ND96 buffer. […] The assay was terminated by removing the reaction buffer and washing the oocytes with ice-cold ND96 buffer. The oocytes were lysed in 10% (w/v) sodium dodecyl sulfate (SDS) and the radioactivity accumulated within each oocyte was measured with a MicroBeta^2 microplate liquid scintillation analyser (PerkinElmer).
# (§5) At least four independent experiments were performed (on different days and using oocytes from different frogs), and within each experiment measurements were made from ten oocytes per treatment.
# [6] = test system: non-expressing oocytes; assay: cells; format: cell-based, Xenopus laevis; details: non-expressing oocytes, total [3H]CQ transport, normalised to the oocyte type control
# Excerpt: as §2, §3, §4, §5
# [7] = test system: non-expressing oocytes; format: cell-based, Xenopus laevis; details: non-expressing oocytes, total [3H]CQ transport, normalised to the oocyte type control
# In short: as §1
# [8] = target: T1, PfCRT^Ecu1110; assay: [3H]CQ uptake into Xenopus oocytes, cis-inhibition by unlabelled solute; format: cell-based; details: for Uptake of [3H]CQ (% PfCRTEcu1110 control), cis-inhibition / PfCRT-mediated [3H]CQ transport, cis-inhibition (% PfCRTEcu1110 control): PfCRTEcu1110 oocytes; for Uptake of [3H]CQ (% PfCRTEcu1110 control), cis-inhibition: total [3H]CQ transport, normalised to the oocyte type control; for PfCRT-mediated [3H]CQ transport, cis-inhibition (% PfCRTEcu1110 control): background [3H]CQ accumulation subtracted, normalised to oocyte type control
# In short: (§6)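 Inward transport into oocyte cytosol from pH 5.5 medium models PfCRT efflux from the acidic digestive vacuole. Incubation 1.5 h, 27.5 °C; termination by ice-cold washes; lysate radioactivity counted.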
# [9] = target: T2, PfCRT^Dd2; assay: as above; format: cell-based; details: PfCRTDd2 oocytes, background [3H]CQ accumulation subtracted, normalised to oocyte type control
# In short: as §6
# [10] = [test solute]i = 45 mM (30 mM for some solutes due to solubility)
# [11] = [test solute]i = 5 mM (intracellular)
# [12] = [test solute]i = 45 mM (intracellular; 30 mM for some solutes due to solubility)
# [13] = [test solute]i = 5 mM (injected)
# T2 sequence (Q9N623 whole entry A220S/I356T/K76T/M74I/N326S/N75E/Q271E/R371I): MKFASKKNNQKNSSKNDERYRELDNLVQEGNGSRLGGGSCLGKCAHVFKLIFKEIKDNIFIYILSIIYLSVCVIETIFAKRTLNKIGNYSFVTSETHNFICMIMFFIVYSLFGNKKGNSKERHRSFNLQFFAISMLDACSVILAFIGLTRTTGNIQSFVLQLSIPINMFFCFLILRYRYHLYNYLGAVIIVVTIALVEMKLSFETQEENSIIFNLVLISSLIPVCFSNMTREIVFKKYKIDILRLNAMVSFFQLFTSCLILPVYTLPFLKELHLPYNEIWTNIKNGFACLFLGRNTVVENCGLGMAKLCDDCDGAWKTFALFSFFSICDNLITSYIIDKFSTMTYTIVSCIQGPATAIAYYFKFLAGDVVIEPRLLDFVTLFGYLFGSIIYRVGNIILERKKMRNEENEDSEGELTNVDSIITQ
# T1 sequence (Q9N623 whole entry A220S/I356L/K76T/N326D): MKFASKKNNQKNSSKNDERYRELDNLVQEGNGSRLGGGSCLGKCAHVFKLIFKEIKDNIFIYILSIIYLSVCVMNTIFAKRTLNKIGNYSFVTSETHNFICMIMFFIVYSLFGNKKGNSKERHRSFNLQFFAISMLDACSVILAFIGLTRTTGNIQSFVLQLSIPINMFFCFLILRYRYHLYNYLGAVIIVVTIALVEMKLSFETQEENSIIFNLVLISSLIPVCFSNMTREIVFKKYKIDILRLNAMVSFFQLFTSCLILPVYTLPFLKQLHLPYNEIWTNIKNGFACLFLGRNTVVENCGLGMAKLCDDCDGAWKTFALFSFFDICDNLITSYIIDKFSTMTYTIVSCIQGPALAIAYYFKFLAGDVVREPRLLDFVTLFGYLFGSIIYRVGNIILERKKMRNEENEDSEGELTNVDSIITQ
# T4 sequence (Q8IBZ9 59-398): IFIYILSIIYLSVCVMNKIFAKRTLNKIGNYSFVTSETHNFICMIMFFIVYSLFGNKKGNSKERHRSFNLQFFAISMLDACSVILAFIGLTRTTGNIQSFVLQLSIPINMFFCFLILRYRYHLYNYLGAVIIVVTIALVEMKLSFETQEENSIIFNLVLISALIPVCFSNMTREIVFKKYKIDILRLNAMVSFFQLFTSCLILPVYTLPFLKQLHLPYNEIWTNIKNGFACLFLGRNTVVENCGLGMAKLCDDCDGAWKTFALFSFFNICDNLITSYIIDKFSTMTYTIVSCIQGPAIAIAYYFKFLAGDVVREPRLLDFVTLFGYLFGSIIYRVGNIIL
# T3 sequence (Q8IDM6 whole entry): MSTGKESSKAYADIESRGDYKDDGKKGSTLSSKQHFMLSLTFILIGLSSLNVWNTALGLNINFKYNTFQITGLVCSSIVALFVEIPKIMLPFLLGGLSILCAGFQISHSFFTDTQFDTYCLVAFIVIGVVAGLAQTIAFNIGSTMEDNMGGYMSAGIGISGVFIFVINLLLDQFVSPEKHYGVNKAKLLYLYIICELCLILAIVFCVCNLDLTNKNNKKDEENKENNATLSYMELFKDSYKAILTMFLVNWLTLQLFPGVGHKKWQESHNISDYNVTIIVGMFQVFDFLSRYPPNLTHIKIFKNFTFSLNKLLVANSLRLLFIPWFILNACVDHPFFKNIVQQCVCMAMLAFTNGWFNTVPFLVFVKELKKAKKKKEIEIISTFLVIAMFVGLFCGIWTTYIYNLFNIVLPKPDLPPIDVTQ
substance,measurement,setting,value
PPVQ [PQ-4],"Uptake of [3H]CQ (% PfCRTEcu1110 control), trans-stimulation",[1]; [test solute]i = 5 mM,124 ± 2.9 % PfCRTEcu1110 control
same,"Uptake of [3H]CQ (% PfCRTEcu1110 control), trans-stimulation",[1]; [10],138 ± 3.2 % PfCRTEcu1110 control
same,"PfCRT-mediated [3H]CQ transport, trans-stimulation (% PfCRTEcu1110 control)",[1]; [11],120 ± 3.2 % PfCRTEcu1110 control
same,"PfCRT-mediated [3H]CQ transport, trans-stimulation (% PfCRTEcu1110 control)",[1]; [12],132 ± 1.1 % PfCRTEcu1110 control
same,"[3H]CQ transport (% PfCRTDd2 control), trans-stimulation, PfCRTEcu1110",[1]; [13],36 ± 1.3 % PfCRTEcu1110 control
same,"[3H]CQ transport (% PfCRTDd2 control), trans-stimulation, PfCRTEcu1110",[1]; [10],40 ± 1.3 % PfCRTEcu1110 control
same,"Uptake of [3H]CQ (% PfCRTDd2 control), trans-stimulation",[2]; [test solute]i = 5 mM,100 ± 3.2 % PfCRTDd2 control
same,"Uptake of [3H]CQ (% PfCRTDd2 control), trans-stimulation",[2]; [10],115 ± 2.9 % PfCRTDd2 control
same,"PfCRT-mediated [3H]CQ transport, trans-stimulation (% PfCRTDd2 control)",[2]; [11],98 ± 4.2 % PfCRTDd2 control
same,"PfCRT-mediated [3H]CQ transport, trans-stimulation (% PfCRTDd2 control)",[2]; [12],110 ± 1.1 % PfCRTDd2 control
same,"[3H]CQ transport (% PfCRTDd2 control), trans-stimulation, PfCRTDd2",[2]; [13],98 ± 4.2 % PfCRTDd2 control
same,"[3H]CQ transport (% PfCRTDd2 control), trans-stimulation, PfCRTDd2",[2]; [10],110 ± 1.1 % PfCRTDd2 control
same,"Uptake of [3H]CQ (% PfNT1 control), trans-stimulation",[3]; [test solute]i = 5 mM,100 ± 2.5 % PfNT1 control
same,"Uptake of [3H]CQ (% PfNT1 control), trans-stimulation",[3]; [10],99 ± 3.2 % PfNT1 control
same,"Uptake of [3H]CQ (% PfCRT3D7 control), trans-stimulation",[4]; [test solute]i = 5 mM,134 ± 2.5 % PfCRT3D7 control
same,"Uptake of [3H]CQ (% PfCRT3D7 control), trans-stimulation",[4]; [10],165 ± 4.2 % PfCRT3D7 control
same,"PfCRT-mediated [3H]CQ transport, trans-stimulation (% PfCRT3D7 control)",[4]; [11],129 ± 2.1 % PfCRT3D7 control
same,"PfCRT-mediated [3H]CQ transport, trans-stimulation (% PfCRT3D7 control)",[4]; [12],159 ± 5.2 % PfCRT3D7 control
same,"Uptake of [3H]CQ (% PfCRT3D7 control), cis-inhibition",[5]; [test solute] = 0.5 mM,99 ± 3.9 % PfCRT3D7 control
same,"Uptake of [3H]CQ (% PfCRT3D7 control), cis-inhibition",[5]; [test solute] = 1 mM,99 ± 6.3 % PfCRT3D7 control
same,"Uptake of [3H]CQ (% PfCRT3D7 control), cis-inhibition",[5]; [test solute] = 2 mM,99 ± 5.3 % PfCRT3D7 control
same,"Uptake of [3H]CQ (% non-expressing oocyte control), cis-inhibition",[6]; [test solute] = 1 mM,99 ± 5.3 % non-expressing oocyte control
same,"Uptake of [3H]CQ (% non-expressing oocyte control), cis-inhibition",[6]; [test solute] = 2 mM,100 ± 3.7 % non-expressing oocyte control
same,"Uptake of [3H]CQ (% non-expressing oocyte control), trans-stimulation",[7]; [test solute]i = 5 mM,99 ± 3.4 % non-expressing oocyte control
same,"Uptake of [3H]CQ (% non-expressing oocyte control), trans-stimulation",[7]; [10],100 ± 2.7 % non-expressing oocyte control
same,"Uptake of [3H]CQ (% PfCRTEcu1110 control), cis-inhibition",[8]; [test solute] = 0.5 mM,67 ± 2.1 % PfCRTEcu1110 control
same,"Uptake of [3H]CQ (% PfCRTEcu1110 control), cis-inhibition",[8]; [test solute] = 1 mM,56 ± 2.8 % PfCRTEcu1110 control
same,"Uptake of [3H]CQ (% PfCRTEcu1110 control), cis-inhibition",[8]; [test solute] = 2 mM,48 ± 4.8 % PfCRTEcu1110 control
same,"PfCRT-mediated [3H]CQ transport, cis-inhibition (% PfCRTEcu1110 control)",[8]; [test solute] = 0.5 mM,61 ± 3.1 % PfCRTEcu1110 control
same,"PfCRT-mediated [3H]CQ transport, cis-inhibition (% PfCRTEcu1110 control)",[8]; [test solute] = 1 mM,51 ± 1.3 % PfCRTEcu1110 control
same,"PfCRT-mediated [3H]CQ transport, cis-inhibition (% PfCRTEcu1110 control)",[8]; [test solute] = 2 mM,41 ± 3.2 % PfCRTEcu1110 control
same,"[3H]CQ transport (% PfCRTEcu1110 control), cis-inhibition, PfCRTEcu1110","[8]; cis-inhibition, [test solute] = 2 mM, PfCRT-mediated component (background subtracted), sheet title says normalised to PfCRTDd2 control, mean ± SEM, SEM",13 ± 0.6 % PfCRTEcu1110 control
same,"PfCRT-mediated [3H]CQ transport, cis-inhibition (% PfCRTDd2 control)",[9]; [test solute] = 0.5 mM,68 ± 3.7 % PfCRTDd2 control
same,"PfCRT-mediated [3H]CQ transport, cis-inhibition (% PfCRTDd2 control)",[9]; [test solute] = 1 mM,59 ± 2.1 % PfCRTDd2 control
same,"PfCRT-mediated [3H]CQ transport, cis-inhibition (% PfCRTDd2 control)",[9]; [test solute] = 2 mM,37 ± 2.0 % PfCRTDd2 control
